# Starred links: 1 amine or outer side, 2 acyl side, 3 side chain; linkers in the order of their positions; H or OH if unused. Positions of bridges follow the written chain, without caps; N, C: chain ends. Non-standard residues stand in square brackets, D forms with d. Residues, ends and D or L forms follow the SMILES beside them. *: point of attachment. Trp(5-OH) = N[CH](Cc1c[nH]c2ccc(O)cc12)C(=O)O; Propanoyl(3-cHex) = O=C(CCC1CCCCC1)*; Hpg = N[CH](C(=O)O)c1ccc(O)cc1; NMeF = CN[CH](Cc1ccccc1)C(=O)O; X1 = CC1CC1(N[*:1])C(=O)[*:2]; Ac3c = NC1(C(=O)O)CC1
# Target: T1, farnesyl transferase (Ftase) (Homo sapiens, UniProt P49354+P49356)
# T1 construct: This enzyme was partially purified from human THP1 cells; endogenous in cells; host or cells: human THP1 cells (enzyme partially purified)
# Experiment: Scintillation proximity assay (SPA) test for farnesyl transferase inhibition
# Assay type: biochemical
# Details: Ftase partially purified from human THP1 cells; biotinylated B lamin peptide (BLB) 0.1 μM, 3HFPP 0.12 μM; 37° C., 60 minutes
# Protocol: The principle of SPA (scintillation proximity assay) technology is applied to assaying the enzymic activity of farnesyl transferase. According to this method, farnesyl transferase inhibitory activity is determined by the quantity of (^3 H)-farnesyl which is transferred from (^3 H)-farnesyl pyrophosphate ((^3 H) FPP) to a biotinylated acceptor substrate.
# The acceptor substrate, which is biotinylated, is a peptide of 11 amino acids corresponding to the terminal sequence of B lamin (BLB). The donor substrate, farnesyl pyrophosphate, is labelled with tritrium (^3 HFPP). […] The radio-labelled peptide excites the beads, which then emit light which is quantified in a solid-liquid scintillation counter (Topcount®, Packard).
# The SPA reaction is started by adding 40 μl of Ftase (2 μg) to a microtitre plate which contains 20 μl of BLB (0.1 μM), 20 μl of ^3 HFPP (0.12 μM) and 20 μl of assay buffer 50 mM Hepes, pH 7.5, 5 mM MgCl2, 5 mM DTT, 20 mM KCl, 0.01% triton X100 (control) or 20 μl of sample diluted in assay buffer (screening). The plate is incubated at 37° C. for 60 minutes and the reaction is stopped by adding 150 μl of stopping reagent containing the SPA beads. The plate is sealed with an adhesive film, left at ambient temperature for 30 minutes in order to reach equilibrium, and then counted in the Topcount counter. […] The IC50 values of the compounds are calculated by non-linear regression.
row,IC50 [nM],Structure (SMILES)
1,626,CC1OC(=O)C2(CC2)NC(=O)C(c2ccc(O)cc2)NC(=O)C(Cc2c[nH]c3ccc(O)cc23)NC(=O)C(CCC(=O)O)NC(=O)C(Cc2ccccc2)N(C)C(=O)C1NC(=O)CCC1CCCCC1 (stereo not drawn) [Peptide 1] ({Propanoyl(3-cHex)}-T[NMeF]E[Trp(5-OH)][Hpg][Ac3c]; ester 1-C; configuration not given here)
2,538,CC1OC(=O)C2(CC2C)NC(=O)C(c2ccc(O)cc2)NC(=O)C(Cc2c[nH]c3ccc(O)cc23)NC(=O)C(CCC(=O)O)NC(=O)C(Cc2ccccc2)N(C)C(=O)C1NC(=O)CCC1CCCCC1 (stereo not drawn) [Peptide 2] ({Propanoyl(3-cHex)}-T[NMeF]E[Trp(5-OH)][Hpg][X1]; ester 1-C; configuration not given here)
3,1300,COC(=O)CCC1NC(=O)C(Cc2ccccc2)N(C)C(=O)C(NC(=O)CCC2CCCCC2)C(C)OC(=O)C2(CC2C)NC(=O)C(c2ccc(O)cc2)NC(=O)C(Cc2c[nH]c3ccc(O)cc23)NC1=O (stereo not drawn) [Peptide 3] ({Propanoyl(3-cHex)}-T[NMeF]E(OMe)[Trp(5-OH)][Hpg][X1]; ester 1-C; configuration not given here)

# — US5734013A, “Peptides having farnesyl transferase inhibiting properties and strain of genus streptomyces for producing same” (Rhone-Poulenc Rorer S.A., priority 1994, dated 1998)
